The values below are quoted from earlier work in patent US20210170044A1, “SYSTEMS AND METHODS FOR LYSOSOME INDUCED IMMUNOGENIC CELL DEATH” (Antigenesis LLC, priority 2017, published 2021).

The data set deals with advanced hepatocellular carcinoma. The following applies: patients with advanced hepatocellular carcinoma receiving 5-fluorouracil; pravastatin as well vs control group.

`O=c1[nH]cc(F)c(=O)[nH]1` [5-fluoroucacil]: the median survival time was 9 months.
